# Several values for one entry are separate records, joined by “and”; a condition that tells them apart may be missing. Identical values can stand only once.
# Key:
# Caco-2 cell monolayers = assay: Assay (I): epithelial cell monolayer permeability (transepithelial transport, Papp) and TEER, Caco-2
# Experimental: Caco-2 cells were seeded in culturing flasks and passaged in Dulbecco's Modified Eagle' (DMEM) medium supplemented with 10% fetal bovine serum, 1% penicillin/streptomycin (100 U/ml and 100 μg/ml, respectively), 1% L-glutamine and 1% nonessential amino acids. Caco-2 cells were seeded onto tissue culture treated polycarbonate filters in 12-well Corning Transwell plates (1.13 cm^2, 0.4 μm pore size) at a density of 10^5 cells/well.
# (§1) Cell monolayers were grown in an atmosphere of 5% CO2-95% O2 at 37° C., replacing growth media every other day. The experiment was performed on day 14-16 after cell seeding.
# Before the experiment, cell monolayers were equilibrated for 60 min with transport buffer on both sides of the epithelium. The transport buffer consisted of Hank's balanced saline solution containing 0.1% Ovalbumin (w/v), 0.005% Tween20 (w/w) and 10 mM HEPES, adjusted to pH 7.4. The transport of [^3H]mannitol (PerkinElmer), was measured to verify the integrity of the epithelium.
# (§2) Translocation of a given compound across cell layers is expressed as the apparent permeability (Papp), given by:
# (§3) [formula] where dQ/dt is the steady-state flux across the cell layer (pmol/s), A is the surface area (1.12 cm^2), and C0 is the initial sample concentration.
# Before and after the experiment the transepithelial electrical resistance (TEER) of the cell monolayers was monitored. After experiments, cells were washed twice with buffer and replenished with medium for 24 h TEER recovery to ensure that the cell monolayers were viable and the enhancer effects were transient. The TEER was measured with EVOM™ Epithelial Voltohmmeter connected to Chopsticks. For Caco-2 monolayers the starting TEER was typically around 1000 Ω·cm^2 and for N87 monolayers it was around 1600 Ω·cm^2.
# NCI-N87 cell monolayers = assay: Assay (I): epithelial cell monolayer permeability (transepithelial transport, Papp) and TEER, NCI-N87
# Experimental: N87 cells were seeded onto tissue culture treated polyester filters in 12-well Corning Transwell plates (1.13 cm^2, 0.4 μm pore size) at a density of 10^5 cells/well.
# as §1
# The amount of test compound transported from the donor chamber (apical side) to the receiver chamber (basolateral side) was measured as described in [1] for Caco-2 monolayers and in [2] for NCl-N87 cell monolayers, in an atmosphere of 5% CO2-95% O2 at 37° C. on a shaking plate (30 rpm). Before the experiment, cell monolayers were equilibrated for 60 min with transport buffer on both sides of the epithelium. The transport buffer consisted of Hank's balanced saline solution containing 0.1% Ovalbumin (w/v), 0.005% Tween20 (w/w) and 10 mM HEPES, adjusted to pH 7.4. The transport of [^3H]mannitol (PerkinElmer), was measured to verify the integrity of the epithelium.
# as §2, §3
# Before and after the experiment the transepithelial electrical resistance (TEER) of the cell monolayers was monitored. After experiments, cells were washed twice with buffer and replenished with medium for 24 h TEER recovery to ensure that the cell monolayers were viable and the enhancer effects were transient. The TEER was measured with EVOM™ Epithelial Voltohmmeter connected to Chopsticks.
# [1] = Caco-2, experiment of Table 1 (semaglutide)
# [2] = Caco-2, experiment of Table 2 (Compound B)
# [3] = Caco-2, experiment of Table 5 (FD4)
# [4] = Caco-2, experiments of Tables 9-10 (semaglutide, FD4)
# [5] = NCI-N87, experiment of Table 3 (semaglutide)
# [6] = NCI-N87, experiment of Table 4 (FD4)
"effect alone on Compound B permeability (Caco-2 cell monolayers; 0.5-2.0 mM dapagliflozin, Caco-2 cell monolayers)","dapagliflozin concentration for which non-recovering TEER was observed (Caco-2 cell monolayers; Caco-2, 24 h in fresh medium)","dapagliflozin concentration for which non-recovering TEER was observed (NCI-N87 cell monolayers; NCI-N87, 24 h in fresh medium) [mM]",SMILES,transient decrease in cell monolayer TEER down to % of starting values (Caco-2 cell monolayers; [1]),transient decrease in cell monolayer TEER down to % of starting values (Caco-2 cell monolayers; [2]),transient decrease in cell monolayer TEER down to % of starting values (Caco-2 cell monolayers; [3]),transient decrease in cell monolayer TEER down to % of starting values (Caco-2 cell monolayers; [4]),transient decrease in cell monolayer TEER down to % of starting values (NCI-N87 cell monolayers; [5]),transient decrease in cell monolayer TEER down to % of starting values (NCI-N87 cell monolayers; [6])
,,,"O=C(O)CCCCCCCNC(=O)c1ccccc1O [SNAC, sodium N-(8-(2-hydroxybenzoyl)amino)caprylate]",~25 % of starting values,~25 % of starting values,~35 % of starting values,~35 % of starting values,~20 % of starting values,~25 % of starting values
negligible effect,> 2.7 mM and 3 mM,> 2.6,CCOc1ccc(Cc2cc([C@@H]3O[C@H](CO)[C@@H](O)[C@H](O)[C@H]3O)ccc2Cl)cc1 [dapagliflozin],~25 % of starting values,~25 % of starting values,~35 % of starting values,,~20 % of starting values,~25 % of starting values
,,,OC[C@H]1O[C@@H](c2ccc(Cl)c(Cc3ccc(O[C@H]4CCOC4)cc3)c2)[C@H](O)[C@@H](O)[C@@H]1O [empagliflozin],,,,~35 % of starting values,,
